# Measured values from patent publication US20040138238A1, “Substituted aminopyrimidine compounds as neurokinin antagonists” (priority 2002, published 2004).
# Like-named read-outs stand apart in the source and are kept apart here.
# Key:
# NK1 receptors = NK1 receptors (Homo sapiens, UniProt P25103); test: in vitro binding to NK1 receptors
# Protocol: (§1) The activity of compounds of the invention were tested in vitro for binding to NK1 and NK2 receptors.
# NK2 receptors = molecular target: T1, NK2 receptors (Homo sapiens, UniProt P21452); test: in vitro binding to NK2 receptors; parameters: Ki (NK2), % @ 1000: concentration or dose not given beside the values; conditions: for Ki (NK2), % @ 1000: @ 1000 (concentration unit not given)
# T1 sequence (P21452 1-398): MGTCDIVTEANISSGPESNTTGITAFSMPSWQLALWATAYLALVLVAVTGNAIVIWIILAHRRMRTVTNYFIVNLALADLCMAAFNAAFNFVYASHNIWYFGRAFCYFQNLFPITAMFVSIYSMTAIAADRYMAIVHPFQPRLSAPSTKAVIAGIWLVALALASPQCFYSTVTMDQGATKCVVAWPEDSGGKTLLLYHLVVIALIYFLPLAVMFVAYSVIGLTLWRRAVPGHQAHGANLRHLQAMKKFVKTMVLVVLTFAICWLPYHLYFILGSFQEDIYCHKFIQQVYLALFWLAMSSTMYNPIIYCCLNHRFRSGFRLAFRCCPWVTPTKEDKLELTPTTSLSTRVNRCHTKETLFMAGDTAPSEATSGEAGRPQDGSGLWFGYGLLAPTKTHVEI
# Protocol: as §1
# Chain of NK1 receptors (P25103 whole entry): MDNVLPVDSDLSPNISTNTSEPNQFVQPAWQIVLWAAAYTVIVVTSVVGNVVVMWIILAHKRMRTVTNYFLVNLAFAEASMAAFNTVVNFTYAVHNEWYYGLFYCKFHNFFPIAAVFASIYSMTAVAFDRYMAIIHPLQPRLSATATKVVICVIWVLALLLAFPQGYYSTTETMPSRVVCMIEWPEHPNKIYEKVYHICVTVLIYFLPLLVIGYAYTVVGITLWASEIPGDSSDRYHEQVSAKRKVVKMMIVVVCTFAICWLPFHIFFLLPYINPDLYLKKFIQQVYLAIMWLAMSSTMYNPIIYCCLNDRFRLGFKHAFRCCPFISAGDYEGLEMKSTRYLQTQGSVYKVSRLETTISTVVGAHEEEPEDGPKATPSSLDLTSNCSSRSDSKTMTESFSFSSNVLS
Compound,Ki (NK1 receptors) [nM],Ki (NK2 receptors; unit inferred) [nM],"Ki (NK2), % @ 1000 (NK2 receptors) [% @]",Ki (NK2 receptors) [nM]
"OC(CNC1CCN(c2ncnc3scc(-c4ccccc4)c23)CC1)COc1ccc(F)cc1F (centres unmarked) [1-(2,4-Difluoro-phenoxy)-3-[1-(5-phenyl-thieno[2,3-d]pyrimidin-4-yl)-piperidin-4-ylamino]-propan-2-ol]",286,,,
"COc1ccc(OCC(O)CNC2CCN(c3ncnc4scc(-c5ccccc5)c34)CC2)c(Cl)c1 (centres unmarked) [1-(2-Chloro-4-methoxy-phenoxy)-3-[1-(5-phenyl-thieno[2,3-d]pyrimidin-4-yl)-piperidin-4-ylamino]-propan-2-ol]",109,1570,,
"OC(CNC1CCN(c2ncnc3scc(-c4ccccc4)c23)CC1)COc1ccc(Cl)c(Cl)c1 (centres unmarked) [1-(3,4-Dichloro-phenoxy)-3-[1-(5-phenyl-thieno[2,3-d]pyrimidin-4-yl)-piperidin-4-ylamino]-propan-2-ol]",268,3390,,
"OC(CNC1CCN(c2ncnc3scc(-c4ccccc4)c23)CC1)COc1ccc(F)c(F)c1 (centres unmarked) [1-(3,4-Difluoro-phenoxy)-3-[1-(5-phenyl-thieno[2,3-d]pyrimidin-4-yl)-piperidin-4-ylamino]-propan-2-ol]",75,,28,
"COc1ccc(OCC(O)CNC2CCN(c3ncnc4scc(-c5ccccc5)c34)CC2)cc1OC (centres unmarked) [1-(3,4-Dimethoxy-phenoxy)-3-[1-(5-phenyl-thieno[2,3-d]pyrimidin-4-yl)-piperidin-4-ylamino]-propan-2-ol]",126,6250,,
"OC(CNC1CCN(c2ncnc3scc(-c4ccccc4)c23)CC1)COc1cc(C(F)(F)F)cc(C(F)(F)F)c1 (centres unmarked) [1-(3,5-Bis-trifluoromethyl-phenoxy)-3-[1-(5-phenyl-thieno[2,3-d]pyrimidin-4-yl)-piperidin-4-ylamino]-propan-2-ol]",1310,> 1000,,
"OC(CNC1CCN(c2ncnc3scc(-c4ccccc4)c23)CC1)COc1cc(F)cc(F)c1 (centres unmarked) [1-(3,5-Difluoro-phenoxy)-3-[1-(5-phenyl-thieno[2,3-d]pyrimidin-4-yl)-piperidin-4-ylamino]-propan-2-ol]",272,,21,
"OC(CNC1CCN(c2ncnc3scc(-c4ccccc4)c23)CC1)COc1ccc(F)c(Cl)c1 (centres unmarked) [1-(3-Chloro-4-fluoro-phenoxy)-3-[1-(5-phenyl-thieno[2,3-d]pyrimidin-4-yl)-piperidin-4-ylamino]-propan-2-ol]",137,,,
"COc1cc(OCC(O)CNC2CCN(c3ncnc4scc(-c5ccccc5)c34)CC2)ccc1Cl (centres unmarked) [1-(4-Chloro-3-methoxy-phenoxy)-3-[1-(5-phenyl-thieno[2,3-d]pyrimidin-4-yl)-piperidin-4-ylamino]-propan-2-ol]",126,,47,

# The next lines start with the values.
Ki (NK1 receptors) [nM],Ki (NK2 receptors; unit inferred) [nM],"Ki (NK2), % @ 1000 (NK2 receptors) [% @]",Ki (NK2 receptors) [nM],Compound
53,,,1700,"COc1ccc(OCC(O)CNC2CCN(c3ncnc4scc(-c5ccccc5)c34)CC2)cc1 (centres unmarked) [1-(4-Methoxy-phenoxy)-3-[1-(5-phenyl-thieno[2,3-d]pyrimidin-4-yl)-piperidin-4-ylamino]-propan-2-ol]"
1830,,,,"OC(CNC1CCN(c2ncnc3sccc23)CC1)COc1ccc2c(c1)OCO2 (centres unmarked) [1-(Benzo[1,3]dioxol-5-yloxy)-3-(1-thieno[2,3-d]pyrimidin-4-yl-piperidin-4-ylamino)-propan-2-ol]"
868,,,,"Cc1csc2ncnc(N3CCC(NCC(O)COc4ccc5c(c4)OCO5)CC3)c12 (centres unmarked) [1-(Benzo[1,3]dioxol-5-yloxy)-3-[1-(5-methyl-thieno[2,3-d]pyrimidin-4-yl)-piperidin-4-ylamino]-propan-2-ol]"
7.6,> 10000,,,"OC(CNC1CCN(c2ncnc3scc(-c4ccccc4)c23)CC1)COc1ccc2c(c1)OCO2 (centres unmarked) [1-(Benzo[1,3]dioxol-5-yloxy)-3-[1-(5-phenyl-thieno[2,3-d]pyrimidin-4-yl)-piperidin-4-ylamino]-propan-2-ol]"
15,,49,,"OC(CNC1CCN(c2ncnc3scc(-c4ccccc4)c23)CC1)COc1ccc(OC(F)(F)F)cc1 (centres unmarked) [1-[1-(5-Phenyl-thieno[2,3-d]pyrimidin-4-yl)-piperidin-4-ylamino]-3-(4-trifluoromethoxy-phenoxy)-propan-2-ol]"
472,,,,"Fc1ccc(OCC2CN(C3CCN(c4ncnc5scc(-c6ccccc6)c45)CC3)CCO2)cc1 (centres unmarked) [4-{4-[2-(4-Fluoro-phenoxymethyl)-morpholin-4-yl]-piperidin-1-yl}-5-phenyl-thieno[2,3-d]pyrimidine]"
1860,,,,"c1ccc(-c2csc3ncnc(N4CCC(N5CCOC(COc6ccc7c(c6)OCO7)C5)CC4)c23)cc1 (centres unmarked) [4-{4-[2-(Benzo[1,3]dioxol-5-yloxymethyl)-morpholin-4-yl]-piperidin-1-yl}-5-phenyl-thieno[2,3-d]pyrimidine]"
1320,,,,"O=C1COC(COc2ccc3c(c2)OCO3)CN1C1CCN(c2ncnc3scc(-c4ccccc4)c23)CC1 (centres unmarked) [6-(Benzo[1,3]dioxol-5-yloxymethyl)-4-[1-(5-phenyl-thieno[2,3-d]pyrimidin-4-yl)-piperidin-4-yl]-morpholin-3-one]"
141,,,2400,"OC(CNC1CCN(c2ncnc3scc(-c4ccccc4)c23)CC1)COCc1ccccc1 (centres unmarked) [(3-Benzyloxy-2-hydroxy-propyl)-[1-(5-phenyl-thieno[2,3-d]pyrimidin-4-yl)-piperidin-4-yl]-ammonium; chloride]"
53,,14,,"Cl.OC(CNC1CCN(c2ncnc3scc(-c4ccccc4)c23)CC1)COc1ccc(C(F)(F)F)cc1 (centres unmarked) [[2-Hydroxy-3-(4-trifluoromethyl-phenoxy)-propyl]-[1-(5-phenyl-thieno[2,3-d]pyrimidin-4-yl)-piperidin-4-yl]-ammonium; chloride]"
20,,28,,"Cl.OC(CNC1CCN(c2ncnc3scc(-c4ccccc4)c23)CC1)COc1ccc(Cl)c(Cl)c1 (centres unmarked) [[3-(3,4-Dichloro-phenoxy)-2-hydroxy-propyl]-[1-(5-phenyl-thieno[2,3-d]pyrimidin-4-yl)-piperidin-4-yl]-ammonium; chloride]"
910,> 10000,,,"OC(CNC1CCN(c2ncnc3scc(-c4ccccc4)c23)CC1)COc1ccc(Cl)cc1 (centres unmarked) [[3-(4-Chloro-phenoxy)-2-hydroxy-propyl]-[1-(5-phenyl-thieno[2,3-d]pyrimidin-4-yl)-piperidin-4-yl]-ammonium; chloride]"
